Data as given in article PMC8113725, “Structure–activity relationship of ipglycermide binding to phosphoglycerate mutases” (The Journal of Biological Chemistry, 2021).
Bridge positions count the residues as written; N and C are the ends. Square brackets hold non-standard residues; d marks the D form. Peptide text beside a SMILES is read from it.

The compounds below were run against D. immitis iPGM (Dirofilaria immitis, UniProt F4ZE01) (assay: biochemical). Conditions: Di iPGM Ave IC50 (M).

| SMILES | IC50 [M] |
| --- | --- |
| CC(C)C[C@H](NC(=O)[C@H](Cc1ccc(O)cc1)NC(=O)[C@@H]1CSCC(=O)N[C@H](Cc2ccc(O)cc2)C(=O)N[C@@H](CC(=O)O)C(=O)N[C@@H](Cc2ccc(F)cc2)C(=O)N2CCC[C@H]2C(=O)NCC(=O)N[C@@H](CC(=O)O)C(=O)N[C@@H](Cc2ccc(O)cc2)C(=O)N1)C(=O)N[C@@H](Cc1ccc(O)cc1)C(N)=O [Ce-2d Y3(4F)F] | 1.48e-07 |
| CC(C)C[C@H](NC(=O)[C@H](Cc1ccc(O)cc1)NC(=O)[C@@H]1CSCC(=O)N[C@H](Cc2ccc(O)cc2)C(=O)N[C@@H](CC(=O)O)C(=O)N[C@@H](Cc2ccc(F)cc2)C(=O)N2CCC[C@H]2C(=O)NCC(=O)N[C@@H](CC(=O)O)C(=O)N[C@@H](Cc2ccccc2)C(=O)N1)C(=O)N[C@@H](Cc1ccc(O)cc1)C(=O)NCC(=O)N[C@H](C(=O)N[C@@H](CS)C(N)=O)[C@@H](C)O | 1.41e-09 |
| COc1ccc(C[C@@H]2NC(=O)[C@H](CC(=O)O)NC(=O)CNC(=O)[C@@H]3CCCN3C(=O)[C@H](Cc3ccc(O)cc3)NC(=O)[C@H](CC(=O)O)NC(=O)[C@@H](Cc3ccc(O)cc3)NC(=O)CSC[C@@H](C(=O)N[C@@H](Cc3ccc(O)cc3)C(=O)N[C@@H](CC(C)C)C(=O)N[C@@H](Cc3ccc(O)cc3)C(N)=O)NC2=O)cc1 [Ce-2d Y7(4OMe)F] | 6.79e-08 |
| CC(C)C[C@H](NC(=O)[C@H](Cc1ccc(O)cc1)NC(=O)[C@@H]1CSCC(=O)N[C@H](Cc2ccc(O)cc2)C(=O)N[C@@H](CC(=O)O)C(=O)N[C@@H](Cc2ccc(O)cc2)C(=O)N2CCC[C@H]2C(=O)NCC(=O)N[C@@H](CC(=O)O)C(=O)N[C@@H](Cc2ccc(O)cc2)C(=O)N1)C(=O)N[C@@H](Cc1ccc(O)cc1)C(=O)O [Ce-2d Y11COOH] | 7.75e-07 |
| CC(C)C[C@H](NC(=O)[C@H](Cc1ccc(O)cc1)NC(=O)[C@@H]1CSCC(=O)N[C@H](Cc2ccc(O)cc2)C(=O)N[C@@H](CC(=O)O)C(=O)N[C@@H](Cc2ccc(O)cc2)C(=O)N2CCC[C@H]2C(=O)N[C@@H](CCC(N)=O)C(=O)N[C@@H](CC(=O)O)C(=O)N[C@@H](Cc2ccc(O)cc2)C(=O)N1)C(=O)N[C@@H](Cc1ccc(O)cc1)C(N)=O [Ce-2d G5Q] | 5.99e-06 |
| COc1ccc(C[C@H](NC(=O)[C@@H]2CSCC(=O)N[C@H](Cc3ccc(O)cc3)C(=O)N[C@@H](CC(=O)O)C(=O)N[C@@H](Cc3ccc(O)cc3)C(=O)N3CCC[C@H]3C(=O)NCC(=O)N[C@@H](CC(=O)O)C(=O)N[C@@H](Cc3ccc(O)cc3)C(=O)N2)C(=O)N[C@@H](CC(C)C)C(=O)N[C@@H](Cc2ccc(O)cc2)C(N)=O)cc1 [Ce-2d Y9(4OMe)F] | 2.04e-06 |
| CC(C)C[C@H](NC(=O)[C@H](Cc1ccc(O)cc1)NC(=O)[C@@H]1CSCC(=O)N[C@H](Cc2ccc(O)cc2)C(=O)NCC(=O)N[C@@H](Cc2ccc(O)cc2)C(=O)N2CCC[C@H]2C(=O)NCC(=O)N[C@@H](CC(=O)O)C(=O)N[C@@H](Cc2ccc(O)cc2)C(=O)N1)C(=O)N[C@@H](Cc1ccc(O)cc1)C(N)=O [Ce-2d D2G] | 1.32e-06 |
| CC(C)C[C@H](NC(=O)[C@H](Cc1ccc(O)cc1)NC(=O)[C@@H]1CSCC(=O)N[C@H](Cc2ccc(O)cc2)C(=O)N[C@@H](CC(=O)O)C(=O)N[C@@H](Cc2ccc(O)cc2)C(=O)N2CCC[C@H]2C(=O)NCC(=O)N[C@@H](CC(=O)O)C(=O)N[C@@H](CO)C(=O)N1)C(=O)N[C@@H](Cc1ccc(O)cc1)C(N)=O [Ce-2d Y7S] | 1.78e-07 |
| CC(C)C[C@H](NC(=O)[C@H](CC(C)C)NC(=O)[C@H](Cc1ccc(O)cc1)NC(=O)[C@@H]1CSCC(=O)N[C@H](Cc2ccc(O)cc2)C(=O)N[C@@H](CC(=O)O)C(=O)N[C@@H](Cc2ccc(O)cc2)C(=O)N2CCC[C@H]2C(=O)NCC(=O)N[C@@H](CC(=O)O)C(=O)N[C@@H](Cc2ccc(O)cc2)C(=O)N1)C(N)=O [Ce-2d Y11L] | 2.43e-07 |
| CC(C)C[C@H](NC(=O)[C@H](Cc1ccc(F)cc1)NC(=O)[C@@H]1CSCC(=O)N[C@H](Cc2ccc(O)cc2)C(=O)N[C@@H](CC(=O)O)C(=O)N[C@@H](Cc2ccc(O)cc2)C(=O)N2CCC[C@H]2C(=O)NCC(=O)N[C@@H](CC(=O)O)C(=O)N[C@@H](Cc2ccc(O)cc2)C(=O)N1)C(=O)N[C@@H](Cc1ccc(O)cc1)C(N)=O [Ce-2d Y9(4F)F] | 3.33e-07 |
| CC(C)C[C@H](NC(=O)[C@H](Cc1ccc(O)cc1)NC(=O)[C@@H]1CSCC(=O)N[C@H](Cc2ccc(O)cc2)C(=O)N[C@@H](C(C)C)C(=O)N[C@@H](Cc2ccc(O)cc2)C(=O)N2CCC[C@H]2C(=O)NCC(=O)N[C@@H](CC(=O)O)C(=O)N[C@@H](Cc2ccc(O)cc2)C(=O)N1)C(=O)N[C@@H](Cc1ccc(O)cc1)C(N)=O [Ce-2d D2V] | 5.77e-07 |
| CC(C)C[C@H](NC(=O)[C@H](Cc1ccc(O)cc1)NC(=O)[C@@H]1CSCC(=O)N[C@H](Cc2ccc(O)cc2)C(=O)N[C@@H](CCC(=O)O)C(=O)N[C@@H](Cc2ccc(O)cc2)C(=O)N2CCC[C@H]2C(=O)NCC(=O)N[C@@H](CC(=O)O)C(=O)N[C@@H](Cc2ccc(O)cc2)C(=O)N1)C(=O)N[C@@H](Cc1ccc(O)cc1)C(N)=O [Ce-2d D2E] | 9.99e-08 |
| CC(C)C[C@H](NC(=O)[C@H](Cc1ccc(O)cc1)NC(=O)[C@@H]1CSCC(=O)N[C@H](Cc2ccc(O)cc2)C(=O)N[C@@H](CC(=O)O)C(=O)N[C@@H](Cc2ccc(O)cc2)C(=O)N[C@@H](C)C(=O)NCC(=O)N[C@@H](CC(=O)O)C(=O)N[C@@H](Cc2ccc(O)cc2)C(=O)N1)C(=O)N[C@@H](Cc1ccc(O)cc1)C(N)=O [Ce-2d P4A] | 7.94e-08 |
| CC(C)C[C@H](NC(=O)[C@H](Cc1ccc(O)cc1)NC(=O)[C@@H]1CSCC(=O)N[C@H](Cc2ccc(F)cc2)C(=O)N[C@@H](CC(=O)O)C(=O)N[C@@H](Cc2ccc(O)cc2)C(=O)N2CCC[C@H]2C(=O)NCC(=O)N[C@@H](CC(=O)O)C(=O)N[C@@H](Cc2ccc(O)cc2)C(=O)N1)C(=O)N[C@@H](Cc1ccc(O)cc1)C(N)=O [Ce-2d Y1D(4F)F] | 3.7e-08 |
| CC(C)C[C@H](NC(=O)[C@H](Cc1ccc(O)cc1)NC(=O)[C@@H]1CSCC(=O)N[C@H](Cc2ccc(O)cc2)C(=O)N[C@@H](CC(=O)O)C(=O)N[C@@H](Cc2ccc(O)cc2)C(=O)N2CCC[C@H]2C(=O)NCC(=O)N[C@@H](CC(=O)O)C(=O)N[C@@H](Cc2ccc(O)cc2)C(=O)N1)C(=O)N[C@@H](Cc1ccc(F)cc1)C(N)=O [Ce-2d Y11(4F)F] | 7.11e-08 |
| CC(C)C[C@H](NC(=O)[C@H](Cc1ccc(O)cc1)NC(=O)[C@@H]1CSCC(=O)N[C@H](Cc2ccc(O)cc2)C(=O)N[C@@H](CC(=O)O)C(=O)N[C@@H](Cc2ccc(O)cc2)C(=O)N2CCC[C@H]2C(=O)NCC(=O)N[C@@H](CC(=O)O)C(=O)N[C@@H](Cc2ccc(O)cc2)C(=O)N1)C(=O)N[C@@H](Cc1ccccc1)C(N)=O [Ce-2d Y11F] | 9.89e-08 |
| CC(C)C[C@H](NC(=O)[C@H](Cc1ccc(O)cc1)NC(=O)[C@@H]1CSCC(=O)N[C@H](Cc2ccc(O)cc2)C(=O)N[C@@H](CC(=O)O)C(=O)N[C@@H](Cc2ccccc2)C(=O)N2CCC[C@H]2C(=O)NCC(=O)N[C@@H](CC(=O)O)C(=O)N[C@@H](Cc2ccc(O)cc2)C(=O)N1)C(=O)N[C@@H](Cc1ccc(O)cc1)C(=O)NCC(=O)N[C@H](C(=O)N[C@@H](CS)C(N)=O)[C@@H](C)O [Ce-2 Y3F] ({CH2CO}-[dY]DFPGDYCYLYGTC-NH2; thioether N-8) | 2.42e-09 |
| CC(C)C[C@H](NC(=O)[C@H](Cc1ccc(O)cc1)NC(=O)[C@@H]1CSCC(=O)N[C@H](Cc2ccc(O)cc2)C(=O)N[C@@H](CC(=O)O)C(=O)N[C@@H](Cc2ccccc2)C(=O)N2CCC[C@H]2C(=O)NCC(=O)N[C@@H](CC(=O)O)C(=O)N[C@@H](Cc2ccc(O)cc2)C(=O)N1)C(=O)N[C@@H](Cc1ccc(O)cc1)C(N)=O [Ce-2d Y3F] | 3.2e-06 |
| CC(C)[C@H](NC(=O)[C@H](Cc1ccc(O)cc1)NC(=O)[C@@H]1CSCC(=O)N[C@H](Cc2ccc(O)cc2)C(=O)N[C@@H](CC(=O)O)C(=O)N[C@@H](Cc2ccc(O)cc2)C(=O)N2CCC[C@H]2C(=O)NCC(=O)N[C@@H](CC(=O)O)C(=O)N[C@@H](Cc2ccc(O)cc2)C(=O)N1)C(=O)N[C@@H](Cc1ccc(O)cc1)C(N)=O [Ce-2d L10V] | 1.93e-06 |
| CC(C)C[C@H](NC(=O)[C@H](Cc1ccc(O)cc1)NC(=O)[C@@H]1CSCC(=O)N[C@H](Cc2ccc(O)cc2)C(=O)N[C@@H](CC(=O)O)C(=O)N[C@@H](Cc2c[nH]c3ccccc23)C(=O)N2CCC[C@H]2C(=O)NCC(=O)N[C@@H](CC(=O)O)C(=O)N[C@@H](Cc2ccc(O)cc2)C(=O)N1)C(=O)N[C@@H](Cc1ccc(O)cc1)C(N)=O [Ce-2d Y3W] | 7.09e-06 |
| CC(C)C[C@H](NC(=O)[C@H](Cc1ccc(O)cc1)NC(=O)[C@@H]1CSCC(=O)N[C@@H](Cc2ccc(F)cc2)C(=O)N[C@@H](CC(=O)O)C(=O)N[C@@H](Cc2ccc(O)cc2)C(=O)N2CCC[C@H]2C(=O)NCC(=O)N[C@@H](CC(=O)O)C(=O)N[C@@H](Cc2ccc(O)cc2)C(=O)N1)C(=O)N[C@@H](Cc1ccc(O)cc1)C(N)=O [Ce-2d Y1(4F)F] | 5.35e-08 |
| CC(C)C[C@H](NC(=O)[C@H](Cc1ccccc1)NC(=O)[C@@H]1CSCC(=O)N[C@H](Cc2ccc(O)cc2)C(=O)N[C@@H](CC(=O)O)C(=O)N[C@@H](Cc2ccc(O)cc2)C(=O)N2CCC[C@H]2C(=O)NCC(=O)N[C@@H](CC(=O)O)C(=O)N[C@@H](Cc2ccc(O)cc2)C(=O)N1)C(=O)N[C@@H](Cc1ccc(O)cc1)C(N)=O [Ce-2d Y9F] | 1.43e-05 |
| CC(C)C[C@H](NC(=O)[C@H](Cc1ccc(O)cc1)NC(=O)[C@@H]1CSCC(=O)N[C@H](Cc2ccc(O)cc2)C(=O)N[C@@H](CC(=O)O)C(=O)N[C@@H](Cc2ccc(O)cc2)C(=O)N2CCC[C@H]2C(=O)NCC(=O)N[C@@H](CC(N)=O)C(=O)N[C@@H](Cc2ccc(O)cc2)C(=O)N1)C(=O)N[C@@H](Cc1ccc(O)cc1)C(N)=O [Ce-2d D6N] | 6.18e-06 |
